Test results as given in US20220259254A1, “TRANS-CYCLOOCTENE BIOORTHOGONAL AGENTS AND USES IN CANCER AND IMMUNOTHERAPY” (Tambo, Inc., priority 2019, published 2022).
“Also recorded” adds a separate entry of the source.

Experiments:
MC38 tumor [1] = assay: MC38 subcutaneous syngeneic single tumor model, tumor growth inhibition; type: in vivo, C57BL/6 mice
MC38 tumor [2] = assay: MC38 dual tumor model (injected and non-injected tumor), tumor growth inhibition and survival;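 as to all read-outs here: male C57BL/6 mice carrying two subcutaneous MC38 flank tumors, with treatment given peritumorally beside the larger tumor only and both tumors sized by caliper three times per week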; conditions: for response of non-injected tumors: non-injected tumor (FIG. 6C); for antitumor activity on non-injected tumor compared with G4: P<0.001; for 1-T/C (%) / T/C (%): vs G4 saline; for TV, tumor volume at Day 7: Day 7 = treatment start, all groups peritumoral BIOMATERIAL 1; for survival, statistical difference from Saline: log-rank (Mantel-Cox) test; for tumor growth curves, statistical difference from Saline: unpaired t test with Welch's correction for each day, groups 4, 5, 8
Description: For groups 4-10 (dual tumor model), Immunocompetent male C57BL/6 mice were inoculated SC in the right flank with 5×10^5 MC38 tumor cells (large injected tumor) and in the left flank with 1×10^5 MC38 tumor cells (small non-injected tumor).
Prior to injection, the MC38 cells were suspended in 0.1 mL DMEM media mixed with 50% Matrigel for tumor development. When the average tumor volume of the large tumor reached approximately 100 mm^3, animals were randomly grouped according to body weight and tumor volume into 10 treatment groups with 5-10 mice per group. All groups received peritumoral biomaterial injections (100 μL/mouse) near the large tumor (hereafter, the injected tumor). One hour later, groups 1, 4 and 10 were IV administered saline control (QD×5 days); groups 2, 8 and 9 were IV administered PRODRUG 1 prodrug (28.6 mg/kg Dox Eq QD×5 days; cumulative dose of 143 mg/kg Dox Eq) and group 5 was IV administered Dox HCl control (MTD; 8.1 mg/kg Q4D×3 doses; cumulative dose of 24.3 mg/kg). Tumor volumes for both tumors were measured three times weekly in two dimensions using a caliper, and the volume expressed in mm^3. 8 groups were used to assess the tumor growth inhibition, while groups 9 and 10 (PRODRUG 1, saline n=10/group) were used to determine the immune cell infiltration using flow cytometry. Groups 3, 6 and 7 (n=10) were used to test Dox+ TLR9 agonist (SL-01) and PRODRUG 1+ TLR9 agonist. The TLR9 agonist was given as an intratumoral injection in the primary tumors alone after the last PRODRUG 1 or Dox dose at 25 μg per mouse.
Eighty-five animals were enrolled into the efficacy study. When tumor volume reached an average volume of approximately 100 mm^3, animals were randomized as below using block randomization by Excel based upon their tumor size. […] 5×10^5 MC-38 cells suspended in 100 μL PBS mixed with 50% matrix gel were inoculated subcutaneously into the right flank. For Groups 4 through 10, 1×10^5MC-38 cells suspended in 100 μL PBS mixed with 50% matrix gel were inoculated subcutaneously into the left flank.
Tumor volume was measured thrice weekly in two dimensions using a caliper, and the volume was expressed in mm^3 using the formula: V=0.5 a×b^2, where a and b are the long and short diameters of the tumor, respectively. The tumor volume was then used for calculations of both T-C and T/C values. T-C was calculated with T as the median time (in days) required for the treatment group tumors to reach a predetermined size, and C as the median time (in days) for the control group tumors to reach the same size.

[3] = tested on: tumor-infiltrating lymphocytes (TILs); assay: flow cytometry of tumor-infiltrating immune cells in dual MC38 tumors; type: in vivo, C57BL/6 mice; conditions: for % CD45+CD3+ cells versus saline: 2 weeks after treatment completion
Description: In the same study, 2 groups (n=10) of mice with dual MC38 tumors were used for tumor immune cell profiling and were treated with either BIOMATERIAL 1/PRODRUG 1 TREATMENT or saline. Each group was further divided into 2 subgroups of 5 mice each. Tumor collection was performed on the first and second subgroups at 1 and 2 weeks, respectively. […] The cell percentage of each population of interest was identified (Table 6).
For tumor samples, tumor tissues were homogenized using the Miltenyi Tumor Dissociation kit. Single cell suspension from tumor samples were RBC lysed, centrifuged to pellet cells, washed with cold PBS and resuspend cell pellets in the staining buffer and store on ice. Cells were then ready for FACS antibody staining.
1. For each sample, added cells (<10×10^6 cells/tube) in the staining buffer, into an Eppendorf tube labeled with correct sample name. • Panel 1: Live-dead/CD45/CD3/CD4/CD8/CD25/PD-1 • Panel 2: Live-dead/CD45/CD3/CD4/CD25/Foxp3
2. For each tissue type (tumor), prepared two extra tubes (see below) and added cells (<10×10^6 cells/tube) in the staining buffer into these two tubes. • Tube: no-color • Tube: live-dead only*** • Tube: no-color (fix/perm) • Tube: live-dead only (fix/perm) • Note: These two tubes served as gating control for each tissue type. • *** The live-dead only tube was also used for live-dead compensation. Compensation for 8 fluorochrome-conjugated antibodies was prepared separately, using compensation beads from BD and following vendor's manual.
3. Prepared FcR blocking solution (100 μL per tube×tube numbers) by diluting FcR blocking antibody at 1/100 in staining buffer • Note: Since two Brilliant Violet dyes were used in the FACS panel, BD Horizon Brilliant Stain Buffer were added at 5 μL per 100 μL FcR blocking solution
4. Resuspended cell pellets in 100 μL FcR blocking solution and incubated at RT in dark for 3 min
5. For panel 1, added FACS antibodies to desired concentrations (2 μg/ml for each antibody). Incubated at 4° C. in dark for 30 min. For panel 2, added FACS antibodies (except foxp3) to desired concentrations (2 μg/ml for each antibody), incubated at 4° C. in dark for 30 min, then fixated/permeabilized the cells at 4° C. for 40-50 min, and added foxp3 antibody to desired concentrations (2 μg/ml) at 4° C. in dark for 40 min.
6. Added 1 ml staining buffer, centrifuged at 350 g for 4 min at 4° C. to wash and pellet cells
7. Resuspended cells in “Tube: no color” with 500 μL staining buffer (no live-dead added)
8. Resuspended cells in all other tubes with 500 μL staining buffer with 1 μg/ml live-dead
9. Cells were ready for FACS analysis and were subjected to analysis by the Attune Nxt Flow Cytomter (ThermoFisher)
For Group 9 and Group 10, 5 and 5 mice were sacrificed at 1 and 2 weeks respectively after dosing completion. Tumors were collected for FACS.

MC38 tumor cells = assay: MC38 tumor re-challenge study; type: in vivo, C57BL/6 mice; conditions: 5×10^5 MC38 cells SC at left flank on Day 70; versus naïve mice; listed as BIOMATERIAL 1/PRODRUG 1
Description: Aside from the dual-tumor groups, this study also investigated a tumor re-implantation in mice inoculated with only one MC38 tumor. On Day 38, all animals in group G2 (Table 1)(n=8) were treated with a second cycle of BIOMATERIAL 1/PRODRUG 1-100-μL intratumoral BIOMATERIAL 1 injection followed by 5 daily doses (1 dose per day) of PRODRUG 1—this time at 11.9 mg/kg/dose Dox Eq (59.3 mg/kg/cycle Dox Eq).
In addition, mice from group G3 (Table 1) (n=5), and mice from dual tumor groups G6, G7, and G8 (n=10) were rechallenged.

bacteria = assay: activity against bacteria measured by microcalorimetry; type: cell-based; conditions: tested up to 64 μg/ml (32 μM)
Text: Example A7C can be synthesized using a protocol analogous to Example A7B.

[4] = injected tumor, single tumor mice, D21, vs G1 saline
[5] = dual tumor mice, injected tumor
[6] = dual tumor mice, non-injected tumor
[7] = injected tumor, dual tumor mice, D21
[8] = injected tumor, dual tumor mice
[9] = non-injected tumor, dual tumor mice, D24
[10] = non-injected tumor, dual tumor mice

SMILES: COc1cccc2c1C(=O)c1c(O)c3c(c(O)c1C2=O)C[C@@](O)(C(=O)CO)C[C@@H]3O[C@H]1CC(NC(=O)O[C@@H]2/C=C/CC[C@](C)(C(=O)NCC(=O)O)CC2)[C@H](O)C(C)O1 (stereo partly shown) [PRODRUG 1]
- complete remission (MC38 tumor [1]; MC38 model): 10 % of mice treated
- 1-T/C (%) (MC38 tumor [1]; [4]): 62%
- T/C (%) (MC38 tumor [1]; [4]): 38%
- TV, tumor volume at Day 7 (MC38 tumor [1]; injected tumor, single tumor mice, Day 7 = treatment start, all groups peritumoral BIOMATERIAL 1): 94 ± 6.3 mm^3
- TV, tumor volume at Day 21 (MC38 tumor [1]; injected tumor, single tumor mice, Day 21, all groups peritumoral BIOMATERIAL 1): 393 ± 100.5 mm^3
- antitumor activity compared with control group G1 (MC38 tumor [1]; single tumor mice, P<0.001): significant antitumor activity
- antitumor activity on injected tumor compared with control group G4 (MC38 tumor [2]; [5]): significant antitumor activity
- antitumor response / tumor growth inhibition compared with conventional Dox treatment (MC38 tumor [2]; dual tumor mice, injected tumor, p<0.05, listed as BIOMATERIAL 1/PRODRUG 1): significantly improved antitumor response; also recorded: improved tumor growth inhibition
- response of non-injected tumors (MC38 tumor [2]; dual tumor mice): sustained anti-tumor responses
- antitumor activity on non-injected tumor compared with G4 (MC38 tumor [2]; [6]): significant antitumor activity
- overall survival compared with conventional Dox treatment (MC38 tumor [2]; dual tumor mice, p<0.001, listed as BIOMATERIAL 1/PRODRUG 1): significantly improved
- 1-T/C (%) (MC38 tumor [2]; [7]): 75%
- T/C (%) (MC38 tumor [2]; [7]): 25%
- TV, tumor volume at Day 7 (MC38 tumor [2]; [8]): 93 ± 5.6 mm^3
- TV, tumor volume at Day 21 (MC38 tumor [2]; [8]): 322 ± 45.9 mm^3
- survival, statistical difference from Saline (MC38 tumor [2]; dual tumor mice): significantly different
- 1-T/C (%) (MC38 tumor [2]; [9]): 70%
- T/C (%) (MC38 tumor [2]; [9]): 30%
- TV, tumor volume at Day 12 (MC38 tumor [2]; [10]): 42 ± 3.8 mm^3
- TV, tumor volume at Day 24 (MC38 tumor [2]; [10]): 53 ± 5.2 mm^3
- tumor growth curves, statistical difference from Saline (MC38 tumor [2]): significantly different
- immune cell profile versus saline group ([3]; 1 week after completion of treatment): no differences
- total number of TILs ([3]; injected and non-injected tumors, at 2 weeks, not after 1 week, listed as BIOMATERIAL 1/PRODRUG 1): increased the total number of TILs
- PD-1 expression in CD8+ cells versus saline ([3]; injected or non-injected tumors): no difference
- percentage of CD4+ cells versus saline ([3]; injected tumor, 2 weeks): significantly higher
- percentage of CD8+ cells versus saline ([3]; injected tumor, 2 weeks): significantly higher
- percentage of PD-1+CD4+ T cells versus saline ([3]; injected tumors, 2 weeks): higher percentage
- % CD45+CD3+ cells versus saline ([3]; injected tumors): increased
- percentage of FoxP3+ cells versus saline ([3]; injected tumors, 2 weeks, no statistical significance): lower
- CD4+ cell percentage versus saline ([3]; non-injected tumor, 2 weeks): significantly higher
- CD4+CD25+ FoxP3+ cells (Tregs) ([3]; non-injected tumors, 2 weeks): no CD4+CD25+ FoxP3+ cells observed
- difference in PD-1+CD4+ T cells versus saline ([3]; non-injected tumors, 2 weeks): not observed
- % CD45+CD3+ cells versus saline ([3]; non-injected tumors): increased
- cell percentage of CD8+ cells versus saline ([3]; non-injected tumors, 2 weeks, no statistical significance): appeared higher
- tumor growth after re-challenge with MC38 cells (MC38 tumor cells): suppressed; also recorded: sustained anti-tumor response

SMILES: CC(C)CC(C(=O)N[C@H]1C(=O)N[C@@H](CC(N)=O)C(=O)N[C@H]2C(=O)N[C@H]3C(=O)N[C@H](C(=O)N[C@H](C(=O)O)c4cc(O)cc(O)c4-c4cc3ccc4O)[C@H](O)c3ccc(c(Cl)c3)Oc3cc2cc(c3O[C@@H]2O[C@H](CO)[C@@H](O)[C@H](O)[C@H]2O[C@H]2C[C@](C)(NC(=O)O[C@@H]3/C=C/CC[C@](C)(C(=O)NCC(=O)O)CC3)[C@H](O)[C@H](C)O2)Oc2ccc(cc2Cl)[C@H]1O)N(C)C(=O)O[C@@H]1/C=C/CC[C@](C)(C(=O)NCC(=O)O)CC1 (stereo partly shown) [Vanco-Bis-TCO-Glycine]
- activity against bacteria (bacteria): no activity

SMILES: COc1cccc2c1C(=O)c1c(O)c3c(c(O)c1C2=O)C[C@@](O)(C(=O)CO)C[C@@H]3O[C@H]1C[C@H](N)[C@H](O)[C@H](C)O1 [Dox, doxorubicin, reference compound]
- antitumor activity on injected tumor compared with control group G4 (MC38 tumor [2]; [5]): significant antitumor activity
- response of non-injected tumors (MC38 tumor [2]; dual tumor mice): progressive growth
- antitumor activity on non-injected tumor compared with G4 (MC38 tumor [2]; [6]): significant antitumor activity
- 1-T/C (%) (MC38 tumor [2]; [7]): 34%
- T/C (%) (MC38 tumor [2]; [7]): 66%
- TV, tumor volume at Day 7 (MC38 tumor [2]; [8]): 93 ± 8.5 mm^3
- TV, tumor volume at Day 21 (MC38 tumor [2]; [8]): 810 ± 196.4 mm^3
- survival, statistical difference from Saline (MC38 tumor [2]; dual tumor mice): not significantly different
- 1-T/C (%) (MC38 tumor [2]; [9]): 66%
- T/C (%) (MC38 tumor [2]; [9]): 34%
- TV, tumor volume at Day 12 (MC38 tumor [2]; [10]): 67 ± 18.8 mm^3
- TV, tumor volume at Day 24 (MC38 tumor [2]; [10]): 93 ± 19.2 mm^3
- tumor growth curves, statistical difference from Saline (MC38 tumor [2]): not significantly different
